Assay results from ChEMBL document CHEMBL1159279, “Mechanism-based antitumor screening of Caribbean marine organisms: isolation and structure determination of novel diterpenoids from the gorgonian Eunicea tourneforti” (1995).

These molecules were tested on Saccharomyces cerevisiae (assay: Antifungal activity against DNA-damage repair genes deficient Saccharomyces cerevisiae RS 321 after 48 hrs by mechanism based bioassay).
Format: functional
`CC(=O)OCC(COC(C)=O)=C1C=C[C@]2(C)C/C=C(\C)CC[C@@H]3O[C@@]3(C)CC[C@@H]12` was tested, and the IC12 was > 3000 µg/mL. For `CC(=O)OC/C1=C\C[C@@]2(C)CC(=O)C(=C(C)C)[C@@H]2CC[C@]2(C)O[C@H]2CC1`, the IC12 was 1800 µg/mL. With `C=C(C)C1C/C=C(\C)CC[C@H](O)[C@@]2(C)CCC=C(CC1)C(=O)O2` (stereo partly specified) the IC12 was > 3000 µg/mL. For `CC(=O)O[C@H]1C/C(C)=C/C[C@@]2(C)CC(=O)C(=C(C)C)[C@@H]2CC[C@]2(C)O[C@@H]12`, the IC12 was > 3000 µg/mL. With `C/C1=C\C[C@@]2(C)C(=O)C=C(C(C)C)[C@@H]2CC[C@]2(C)O[C@H]2CC1` the IC12 was 2600 µg/mL. `CC(C)=C1C(=O)C[C@]2(C)C/C=C(\C)CC[C@@H]3O[C@@]3(C)CC[C@@H]12` was tested, and the IC12 was 1500 µg/mL.
